# Values quoted from earlier work as cited in patent US20080103118A1, “COMPOSITION FOR IMPROVING BLOOD CHOLESTEROL LEVELS” (IOMEDIX DEVELOPMENT INTERNATIONAL SRL, priority 2006, published 2008).
# Settings: 117 individuals, 63 Niacin, 54 placebo
smiles,measurement,value
"O=C(O)c1cccnc1 [Niacin, nicotinic acid]",high-density lipoprotein cholesterol (HDL-C),increase
same,low-density lipoprotein cholesterol (LDL-C),decrease
same,total cholesterol,decrease
same,triglyceride levels,decrease
